Nine molecules from PMC12475274, “Harnessing indole scaffolds to identify small-molecule IRE1α inhibitors modulating XBP1 mRNA splicing” (Nature Communications, 2025) can be followed below.

“And” between values parts separate entries of the source, which are not always exact repeats. Identical values can stand only once. Like-named read-outs stand apart in the source and are kept apart here.

Test [1] has as its target T1, dephosphorylated IRE1α (547–977) (Homo sapiens, UniProt O75460).
T1 construct: Human IRE1α kinase and RNase domain (residues 547–977) was subcloned into pLIB plasmid; His tag (with TEV cleavage site) (N, cleaved yes); made in house; host or cells: Sf9 insect cells, baculovirus (Bac-to-Bac)
Description: FRET-based IRE1α RNase activity assay, dephosphorylated IRE1α. Format: biochemical. The method, boiled down:
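Inhibition came from the linear-phase cleavage rate of 100 nM XBP1-sequence FAM/BHQ1 RNA, monitored at 485/535 nm over one hour and fitted to IC50. Enzyme: 40 nM unphosphorylated IRE1α kinase-RNase domain (547–977), exposed to compound for 30 min at room temperature before substrate, in HEPES pH 7.5 buffer.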

A further test addresses T2, IRE1α (Homo sapiens, UniProt O75460).
T2 construct: Human IRE1α kinase and RNase domain (residues 547–977) was subcloned into pLIB plasmid; His tag (with TEV cleavage site) (N, cleaved yes); made in house; host or cells: Sf9 insect cells, baculovirus (Bac-to-Bac)
Description: Differential scanning fluorimetry (DSF), IRE1α. Format: binding. The note with it: for IRE1 ∆Tm(°C): replicate values; for IRE1a ∆Tm: DSF, individual measurements. How it is done:
The DSF assay was performed in PBS buffer containing 2 mM DTT, in a total reaction volume of 20 µl with indicated compounds (final 1% DMSO) and the final concentration of 1 µM IRE1α protein and 5× SYPRO Orange fluorescent dye (5000× in DMSO, Sigma S5692). The melting curve was measured at a temperature range from 25 °C to 95 °C and in increments of 1 °C for 30 s using a Bio-Rad CFX96 Real-Time PCR detection system with the FRET scan mode. The melting temperature (Tm) was obtained by fitting the melting curve to Boltzmann sigmoidal in GraphPad Prism and the thermal shift (∆Tm) was calculated by using the equation: ∆Tm = Tm(compound) -Tm(DMSO).
In general terms: Differential scanning fluorimetry follows unfolding on heating by fluorescence.

Where [2] appears, read: FRET assay, RNase activity, mean (± SEM), read-out: IRE1α IC50.
The mark [3] stands for this setting: FRET assay, source data, unit from Fig. 3 / sheet Fig. 2b, read-out: IRE1a IC50, individual replicates (n1-n4).
The mark [4] stands for this setting: FRET assay at 50 μM, source data, 50 µM.
The mark [5] stands for this setting: IRE1a, IA34 0.000282 μM, Supplementary Fig. 3b, replicate values.
The mark [6] stands for this setting: IRE1a, IA34 1.85185 μM, Supplementary Fig. 3b, replicate values.
Where [7] appears, read: compound 1.563 μM, Supplementary Fig. 3d/3e.
The mark [8] stands for this setting: compound 3.125 μM, Supplementary Fig. 3d/3e.
Where [9] appears, read: compound 6.25 μM, Supplementary Fig. 3d/3e.
Where [10] appears, read: compound 12.5 μM, Supplementary Fig. 3d/3e.
The mark [11] stands for this setting: compound 25 μM, Supplementary Fig. 3d/3e.
Setting [12] is: compound 50 μM, Supplementary Fig. 3d/3e.
Setting [13] is: compound 100 μM, Supplementary Fig. 3d/3e.

T2 sequence (O75460 547-977): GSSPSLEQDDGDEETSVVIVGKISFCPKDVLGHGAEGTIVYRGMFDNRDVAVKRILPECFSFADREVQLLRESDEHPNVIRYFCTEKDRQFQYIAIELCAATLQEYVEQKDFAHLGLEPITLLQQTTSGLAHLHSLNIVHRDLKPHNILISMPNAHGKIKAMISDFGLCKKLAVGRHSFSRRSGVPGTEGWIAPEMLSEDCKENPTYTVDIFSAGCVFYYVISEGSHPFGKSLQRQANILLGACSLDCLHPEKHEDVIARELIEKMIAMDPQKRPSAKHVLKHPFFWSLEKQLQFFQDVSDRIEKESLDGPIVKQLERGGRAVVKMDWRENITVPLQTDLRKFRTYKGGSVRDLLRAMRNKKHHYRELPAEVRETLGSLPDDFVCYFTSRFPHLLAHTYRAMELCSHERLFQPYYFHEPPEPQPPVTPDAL
T1 sequence (O75460 547-977): as above

Turning to `COc1ccc2c(c1)c(CCC(=O)O)c(C)n2C(=O)c1ccccc1` [IA64], the IC50 in test [1] (setting [2]) is 30 nM and 34.9 nM; in test [1] (setting [3]), 44.1 nM and 36.7 nM and 38.4 nM and 20.4 nM. Besides, the “stabilization of IRE1α in DSF” value on IRE1α is “concentration-dependently stabilized”. In addition, the “IRE1 ∆Tm(°C)” value on IRE1α (compound 6.25 μM, Supplementary Fig. 3c) was 1.2 °C and 1.21 °C; at IRE1α (compound 12.5 μM, Supplementary Fig. 3c), 1.94 °C and 2.05 °C; on IRE1α (compound 25 μM, Supplementary Fig. 3c) it was 2.82 °C and 2.92 °C; on IRE1α (compound 50 μM, Supplementary Fig. 3c), 3.88 °C.
On to `COc1ccc2c(c1)c(CCC(=O)O)c(C)n2C(=O)c1ccc(Cl)cc1` [IA01], for which the “IRE1a inhibition(%), individual measurements” value is 86.3319% in test [1] (FRET assay at 10 μM, source data, 10 µM); 92.8762% and 91.6346% and 94.1417% and 92.7378% and 93.1088% and 89.7986% and 113.165% and 103.517% and 100.196% and 112.293% and 71.6431% and 81.6993% in test [1] (setting [4]). In test [1] (FRET assay at 10 μM, source data, read-out: IRE1a inhibition(%), individual measurements), the inhibition at 10 µM worked out at 85.9%. In addition, the inhibition at 50 µM in test [1] (FRET assay at 50 μM, mean (± SEM), read-out: IRE1α inhibition%) came out at 97.1%. Further, the IC50 in test [1] (setting [2]) was 300 nM; in test [1] (setting [3]), 286 nM and 204 nM and 400 nM. Besides, the “stabilization of IRE1α in DSF” value at IRE1α is “stabilized IRE1α concentration-dependently”. In addition, the “IRE1a ∆Tm” value is 1.17 °C and 1.02 °C at IRE1α (compound 25 μM); 1.57 °C and 1.89 °C at IRE1α (compound 50 μM).
As for `COc1ccc2c(c1)c(CCC(=O)O)c(C)n2C(=O)c1ccc2ccccc2c1` [IA34], the “IRE1α IC50” value in test [1] (FRET assay, RNase activity, mean (± SEM)) is reported as “IC₅₀ not reached”. Moreover, the IC50 in test [1] (setting [2]) is above 20000 nM. This molecule also gave an inhibition at 0.000282 µM in test [1] (setting [5]) of 11%. Further, the “inhibition(%)” value in test [1] (setting [5]) was 17.14% and 20.16% and 15.89%; in test [1] (IRE1a, IA34 0.000847 μM, Supplementary Fig. 3b, replicate values), 11.75% and 10.72% and 4.25% and 16.96%; in test [1] (IRE1a, IA34 0.00254 μM, Supplementary Fig. 3b, replicate values), 11.91% and 15.33% and 6.07% and 5.16%; in test [1] (IRE1a, IA34 0.007621 μM, Supplementary Fig. 3b, replicate values) it was 4.65% and -4.78% and -13.00% and -9.42%; in test [1] (IRE1a, IA34 0.022862 μM, Supplementary Fig. 3b, replicate values) it was -15.56% and -32.65% and -11.50% and -23.95%; in test [1] (IRE1a, IA34 0.068587 μM, Supplementary Fig. 3b, replicate values), 0.30% and -2.50% and 3.18% and 1.26%. In addition, the “inhibition(%)” value in test [1] (IRE1a, IA34 0.205761 μM, Supplementary Fig. 3b, replicate values) is 4.13% and 5.59% and 2.33% and -2.10%; in test [1] (IRE1a, IA34 0.617284 μM, Supplementary Fig. 3b, replicate values), 17.19% and 19.37% and 7.03% and 9.32%; in test [1] (setting [6]), 18.23% and 17.28% and 17.87%; in test [1] (IRE1a, IA34 5.55556 μM, Supplementary Fig. 3b, replicate values), 27.30% and 30.30% and 1.63% and 11.62%; in test [1] (IRE1a, IA34 16.6667 μM, Supplementary Fig. 3b, replicate values), 11.08% and 14.65% and 30.15% and 29.94%; in test [1] (IRE1a, IA34 50 μM, Supplementary Fig. 3b, replicate values), -1.98% and 7.19% and 5.53% and 17.33%. The molecule further had an inhibition at 1.85185 µM in test [1] (setting [6]) of 10.8%. Besides, on IRE1α, the “stabilization of IRE1α in DSF” value is listed as “did not show any detectable changes”.
`Cc1ccc2c(NS(=O)(=O)c3ccccc3Cl)cccc2c1Oc1ncccc1-c1ccnc(N[C@H]2CCCNC2)n1` [KIRA8]: the concentration for half-maximal inhibition (IC50) in test [1] (setting [2]) was found to be 21 nM.
As for `Cc1c(CCC(=O)O)c2cc(Br)ccc2n1C(=O)c1ccccc1` [IA107], the “increase in potency (IRE1α)” value in test [1] (FRET IC50, reference compound not named) was 20 fold. For the same molecule, the “IRE1a inhibition(%), individual measurements” value in test [1] (FRET assay at 16.6667 μM, source data, 16.6667 µM) was 96.2448% and 97.4358% and 96.6561% and 93.7071% and 93.3922% and 93.79% and 97.6814%; in test [1] (setting [4]), 89.203% and 96.8587% and 95.5081% and 91.4695% and 84.6077% and 86.1159% and 92.8068%. In test [1] (FRET assay at 16.6667 μM, source data, read-out: IRE1a inhibition(%), individual measurements), the inhibition at 16.6667 µM stood at 92.4%. Also, the inhibition at 50 µM in test [1] (FRET assay at 50 μM, source data, read-out: IRE1a inhibition(%), individual measurements) was 91.3%. The half-maximal inhibitory concentration (IC50) in test [1] (setting [2]) was 16 nM and 15.6 nM; in test [1] (setting [3]), 15.5 nM and 17 nM and 14.2 nM. The “stabilization of IRE1α in DSF” value on IRE1α is given as “concentration-dependently stabilized”. The “IRE1a ∆Tm” value at IRE1α (compound 25 μM) is 4.2925 °C (2×) and 4.2325 °C and 4.2625 °C; on IRE1α (compound 50 μM) it was 5.1825 °C and 5.3725 °C and 5.2525 °C and 5.2825 °C; at IRE1α (compound 100 μM) it was 5.7825 °C and 5.7925 °C (2×) and 5.8625 °C.
Regarding `CCOC(=O)CCc1c(C)n(C(=O)c2ccccc2)c2ccc(Br)cc12` [IAPD1], the “effect on IRE1α RNase activity in the FRET assay” value was “did not show any detectable activity” in test [1] and “did not inhibit the RNase activity” in test [1] (listed as IADP1). Also, the IC50 in test [1] (setting [2]) is above 50000 nM.
With `CCOC(=O)Nc1cccc2c(Oc3ncccc3-c3ccnc(N[C@H]4CCCNC4)n3)c(C)ccc12` [Compound G1749, reference compound], in test [1], the “effect on IRE1α RNase activity in the FRET assay” value is reported as “activating IRE1α activity”. In addition, the “activity (fold change)” value was 6.184 fold change and 6.333 fold change and 5.999 fold change and 6.267 fold change in test [1] (IRE1a, 5.55556 μM); 6.104 fold change and 5.222 fold change and 7.238 fold change and 6.279 fold change in test [1] (IRE1a, 16.6667 μM); 5.173 fold change and 5.3757 fold change and 6.203 fold change and 5.356 fold change in test [1] (IRE1a, 50 μM).
With `Cc1c(CCC(=O)O)c2cc(Cl)ccc2n1C(=O)c1ccccc1` [IA141], the concentration for half-maximal inhibition (IC50) in test [1] (setting [2]) was 52 nM and 50 nM; in test [1] (setting [3]), 61.7 nM and 34.6 nM and 58.2 nM. Besides, at IRE1α, the “stabilization of IRE1α in DSF” value is on record as “concentration-dependently stabilized”. Also, the “IRE1 ∆Tm(°C)” value on IRE1α (setting [7]) was 0.63 °C and 0.81 °C and 0.65 °C and 0.58 °C; at IRE1α (setting [8]), 1.12 °C and 1.18 °C and 0.97 °C and 1.08 °C; at IRE1α (setting [9]), 1.79 °C and 1.73 °C and 1.77 °C and 1.66 °C; at IRE1α (setting [10]), 2.82 °C and 2.70 °C and 2.75 °C and 2.68 °C; at IRE1α (setting [11]), 3.71 °C and 3.59 °C and 3.83 °C and 3.70 °C; at IRE1α (setting [12]), 4.64 °C and 4.50 °C and 4.51 °C and 4.69 °C. Also, at IRE1α (setting [13]), the “IRE1 ∆Tm(°C)” value was 5.27 °C (2×) and 5.25 °C and 5.36 °C.
Consider `Cc1ccc2c(c1)c(CCC(=O)O)c(C)n2C(=O)c1ccccc1` [IA147], for which the IC50 is 66 nM and 66.4 nM in test [1] (setting [2]); 90.6 nM and 45.5 nM and 63.2 nM in test [1] (setting [3]). Further, on IRE1α, the “stabilization of IRE1α in DSF” value is “concentration-dependently stabilized”. Also, the “IRE1 ∆Tm(°C)” value at IRE1α (setting [7]) is 0.4825 °C (2×) and 0.3925 °C and 0.4425 °C; at IRE1α (setting [8]), 0.6325 °C and 0.6525 °C and 0.6425 °C and 0.5925 °C; on IRE1α (setting [9]), 1.0225 °C and 1.5025 °C and 1.2125 °C and 1.1425 °C; on IRE1α (setting [10]), 1.7325 °C and 2.0725 °C and 1.7925 °C (2×); on IRE1α (setting [11]), 2.7025 °C (2×) and 2.5925 °C and 2.5225 °C; at IRE1α (setting [12]), 3.6525 °C and 3.6025 °C and 3.6325 °C and 3.5325 °C. For the same molecule, on IRE1α (setting [13]), the “IRE1 ∆Tm(°C)” value is 4.5725 °C and 4.5025 °C and 4.4925 °C and 4.4625 °C.

One may read the IC50 as the concentration needed to halve the response being measured. What is called inhibition is the drop in the measured response relative to a control, in per cent.
